The numbers were not newly measured in patent publication US20220259243A1, “IRON(III) AND GALLIUM(III) METAL ORGANIC POLYHEDRA, METHODS OF MAKING SAME, AND USES THEREOF” (The Research Foundation for The State University of New York, priority 2019, published 2022), which cites them from elsewhere.

The structures appear in SMILES notation.

The conditions of this series: 37° C., 4.7 Tesla, neutral pH.

As to `CNC[C@H](O)[C@@H](O)[C@H](O)[C@H](O)CO.CNC[C@H](O)[C@@H](O)[C@H](O)[C@H](O)CO.O=C([O-])CN(CCN(CC(=O)[O-])CC(=O)O)CCN(CC(=O)[O-])CC(=O)O.[Gd+3]` [Magnevist], the r1 relaxivity was 3 mM⁻¹ s⁻¹.
